Source: patent publication US7666868B2, “N-sulphonylpyrroles and their use as histone deacetylase inhibitors” (4SC AG, priority 2005, dated 2010)

test system: histone H3 acetylation (lysine 9+14) in HeLa cervical carcinoma cells; assay: Cellular histone H3 acetylation assay; type: cell-based; settings: Homo sapiens, 24 h incubation with compound, read-out: EC50 (histone H3 acetylating cellular potency)
Description: To assess the cellular efficacy of an histone deactylase inhibitor in vitro, an assay is set up in black clear-bottom 96-well plates and optimized for use on the Cellomics “ArrayScan II” platform for a quantitative calculation of histone acetylation. The protocol uses a polyclonal rabbit antibody, specifically binding to acetylated lysine 9+14 of human histone H3 on fixed cells with an Alexa Fluor 488 labeled goat ant rabbit-IgG used for counterstaining (modified from Braunger et al. MCR annual conference 2003, Abstract 4556).
5×10^3 HeLa cervical carcinoma cells/well (ATCC CCL-2) in 200 μl Dulbecco's modified Eagle's medium (DMEM) containing 10% fetal calf serum are seeded at day 1 in Packard view plates and incubated for 24 h under standard cell culture conditions. On day 2, 2 μl test compound (100× final concentration) is added and incubation continued for further 24 h. On day 3, the culture medium is discarded and attached cells fixed for 15 min at room temperature by addition of 100 μl fixation buffer (3.7% v:v formaldehyde in phosphate buffered saline/PBS). After discarding the fixation buffer and one wash with PBS, cells are permeabilized at room temperature by addition of 100 μl/well permeabilization buffer (30.8 mM NaCl, 0.54 mM Na2HPO4, 0.31 mM KH2PO4, 5% v:v Triton X-100) for 15 min at room temperature. After discarding the permeabilization buffer and washing twice with 100 μl/well blocking solution (PBS with 0.05% v:v Tween 20 and 5% w:v milk powder) at room temperature, the 1st antibody (anti-K9+14 histone H3 antibody, Calbiochem No. 382158) in blocking solution (50 μl/well) is added. After incubation for 1 h at 37° C., the wells are washed twice at room temperature with 100 μl/well blocking solution before addition of the 2nd antibody (goat-anti-rabbit Alexa Fluor 488; MoBiTec No. A-11008) in blocking solution (50 μl/well). After further incubation for 1 h at 37° C., wells are washed twice with 100 μl/well blocking solution room temperature. Finally, 100 d/well PBS are added and image analysis performed on the Cellomics “ArrayScan II” platform. For calculation of EC50 values, the nuclear fluorescence in cells treated with and without a reference HDAC inhibitor (eg NVP-LBH-589) are taken as a positive and negative control. For EC50 determination, the percentage of positive cells is determined and EC50 calculation done from concentration-effect curves by means of non-linear regression.

Row | Structure (SMILES) | EC50
1 | CN(C)Cc1ccccc1-c1ccc(S(=O)(=O)n2ccc(/C=C/C(=O)NO)c2)cc1 [Compound 27, (E)-3-[1-(2′-Dimethylaminomethyl-biphenyl-4-sulfonyl)-1H-pyrrol-3-yl]-N-hydroxy-acrylamide] | 0.027 to 4.4 µM
2 | CN1CCN(c2cc(-c3ccc(S(=O)(=O)n4ccc(/C=C/C(=O)NO)c4)cc3)ccn2)CC1 [Compound 28, (E)-N-Hydroxy-3-(1-{4-[2-(4-methyl-piperazin-1-yl)-pyridin-4-yl]-benzenesulfonyl}-1H-pyrrol-3-yl)-acrylamide] | 0.027 to 4.4 µM
3 | CN(C)CCNC(=O)c1ccc(-c2cccc(S(=O)(=O)n3ccc(C=CC(=O)NO)c3)c2)cc1 [Compound 30, 3′-3-((E)-2-Hydroxycarbamoyl-vinyl)-pyrrole-1 sulfonyl]-biphenyl-4-carboxylic acid (2-dimethylamino-ethyl)-amide] | 0.027 to 4.4 µM
4 | O=C(/C=C/c1ccn(S(=O)(=O)c2cccc(-c3cccc(CN4CCOCC4)c3)c2)c1)NO [Compound 31, (E)-N-Hydroxy-3-[1-(3′-morpholin-4-ylmethyl-biphenyl-3-sulfonyl)-1H-pyrrol-3-yl]-acrylamide] | 0.027 to 4.4 µM
5 | CN1CCN(c2cc(-c3cccc(S(=O)(=O)n4ccc(/C=C/C(=O)NO)c4)c3)ccn2)CC1 [Compound 33, (E)-N-Hydroxy-3-(1-{3-[2-(4-methyl-piperazin-1-yl)-pyridin-4-yl]-benzenesulfonyl}-1H-pyrrol-3-yl)-acrylamide] | 0.027 to 4.4 µM
6 | O=C(/C=C/c1ccn(S(=O)(=O)c2cccc(-c3ccc(OCCN4CCOCC4)cc3)c2)c1)NO [Compound 34, (E)-N-Hydroxy-3-{1-[4′-(2-morpholin-4-yl-ethoxy)-biphenyl-3-sulfonyl]-1H-pyrrol-3-yl}-acrylamide] | 0.027 to 4.4 µM

The remaining lines, values ahead:

Row | EC50 | Structure (SMILES)
7 | 0.027 to 4.4 µM | O=C(/C=C/c1ccn(S(=O)(=O)c2ccc(-c3ccc(CCN4CCOCC4)cc3)cc2)c1)NO [Compound 8, (E)-N-Hydroxy-3-{1-[4′-(2-morpholin-4-yl-ethyl)-biphenyl-4-sulfonyl]-1H-pyrrol-3-yl}-acrylamide]
8 | 0.027 to 4.4 µM | O=C(/C=C/c1ccn(S(=O)(=O)c2ccc(-c3cccc(CCN4CCOCC4)c3)cc2)c1)NO [Compound 9, (E)-N-Hydroxy-3-{1-[3′-(2-morpholin-4-yl-ethyl)-biphenyl-4-sulfonyl]-1H-pyrrol-3-yl}-acrylamide]
9 | 0.027 to 4.4 µM | Nc1ccc(-c2cccc(S(=O)(=O)n3ccc(/C=C/C(=O)NO)c3)c2)cn1 [Compound 10, (E)-3-{1-[3-(6-Amino-pyridin-3-yl)-benzenesulfonyl]-1H-pyrrol-3-yl}-N-hydroxy-acrylamide]
10 | 0.027 to 4.4 µM | Cn1cc(-c2cccc(S(=O)(=O)n3ccc(/C=C/C(=O)NO)c3)c2)cn1 [Compound 12, (E)-N-Hydroxy-3-(1-[3-(1-methyl-1H-pyrazol-4-yl)-benzenesulfonyl]-1H-pyrrol-3-yl)-acrylamide]
11 | 0.027 to 4.4 µM | O=C(/C=C/c1ccn(S(=O)(=O)c2cc(-c3ccccc3)ccc2CCN2CCOCC2)c1)NO [Compound 16, (E)-N-Hydroxy-3-{1-[4-(2-morpholin-4-yl-ethyl)-biphenyl-3-sulfonyl]-1H-pyrrol-3-yl}-acrylamide]
12 | 0.027 to 4.4 µM | Nc1ccc(-c2cccc(S(=O)(=O)n3ccc(/C=C/C(=O)Nc4ccccc4N)c3)c2)cn1 [Compound 17, (E)-N-(2-Amino-phenyl)-3-{1-[3-(6-amino-pyridin-3-yl)-benzenesulfonyl]-1H-pyrrol-3-yl}-acrylamide]
13 | 0.027 to 4.4 µM | Nc1ccccc1NC(=O)/C=C/c1ccn(S(=O)(=O)c2cccc(-c3cccc(CCN4CCOCC4)c3)c2)c1 [Compound 18, (E)-N-(2-Amino-phenyl)-3-{1-[3′-(2-morpholin-4-yl-ethyl)-biphenyl-3-sulfonyl]-1H-pyrrol-3-yl}-acrylamide]
14 | 0.027 to 4.4 µM | O=C(/C=C/c1ccn(S(=O)(=O)c2cccc(-c3cccc(CCN4CCOCC4)c3)c2)c1)NO [Compound 20, (E)-N-Hydroxy-3-{1-[3′-(2-morpholin-4-yl-ethyl)-biphenyl-3-sulfonyl]-1H-pyrrol-3-yl}-acrylamide]
15 | 0.027 to 4.4 µM | CS(=O)(=O)Nc1ccccc1-c1ccc(S(=O)(=O)n2ccc(/C=C/C(=O)NO)c2)cc1 [Compound 21, (E)-N-Hydroxy-3-[1-(2′-methanesulfonylamino-biphenyl-4-sulfonyl)-1H-pyrrol-3-yl]-acrylamide]
16 | 0.027 to 4.4 µM | CS(=O)(=O)Nc1cccc(-c2ccc(S(=O)(=O)n3ccc(/C=C/C(=O)NO)c3)cc2)c1 [Compound 22, (E)-N-hydroxy-3-[1-(3′-methanesulfonylamino-biphenyl-4-sulfonyl)-1H-pyrrol-3-yl]-acrylamide]
17 | 0.027 to 4.4 µM | CS(=O)(=O)Nc1ccc(-c2ccc(S(=O)(=O)n3ccc(/C=C/C(=O)NO)c3)cc2)cc1 [Compound 23, (E)-N-Hydroxy-3-[1-(4′-methanesulfonylamino-biphenyl-4-sulfonyl)-1H-pyrrol-3-yl]-acrylamide]
18 | 0.027 to 4.4 µM | CN(C)CCNC(=O)c1ccc(-c2ccc(S(=O)(=O)n3ccc(C=CC(=O)NO)c3)cc2)cc1 [Compound 24, 4′-[3-(E)-2-Hydroxycarbamoyl-vinyl)-pyrrole-1-sulfonyl]-biphenyl-4-carboxylic acid (2-dimethylamino-othyl)-amide]
19 | 0.027 to 4.4 µM | CN(C)CCNC(=O)c1cccc(-c2ccc(S(=O)(=O)n3ccc(C=CC(=O)NO)c3)cc2)c1 [Compound 25, 4′-[3-(E)-2-Hydroxycarbamoyl-vinyl)-pyrrole-1-sulfonyl]-biphenyl-3-carboxylic acid (2-dimethylamino-ethyl)-amide]
20 | 0.027 to 4.4 µM | CN(C)Cc1ccc(-c2ccc(S(=O)(=O)n3ccc(/C=C/C(=O)NO)c3)cc2)cc1 [Compound 26, (E)-3-[1-(4′-Dimethylaminomethyl-biphenyl-4-sulfonyl)-1H-pyrrol-3-yl]-N-hydroxy-acrylamide]

test system: HeLa cervical carcinoma cell line; assay: Cellular cytotoxicity assay (Alamar Blue / Resazurin); type: cell-based; settings: Homo sapiens; HeLa cells, 48 hours incubation; read-out: IC50 (anti-proliferative/cytotoxic potency)
Experimental: The anti-proliferative activity of the histone deacetylase inhibitory compounds as described herein, is evaluated with the HeLa cervical carcinoma cell line (ATCC CCL2) using the Alamar Blue (Resazurin) cell viability assay (O'Brien et al. Eur J Biochem 267, 5421-5426, 2000). Resazurin is reduced to the fluorescent resorufin by cellular dehydrogenase activity, correlating with viable, proliferating cells. Test compounds are dissolved as 10 mM solutions in dimethylsulfoxide (DMSO) and subsequently diluted in semi-logarithmic steps. HeLa cells are seeded into 96 well flat bottom plates at a density of 3000 cells per well in a volume of 200 μl per well. 24 hours after seeding 1 μl each of the compound dilutions are added into each well of the 96 Well plate. Each compound dilution is tested as quadruplicates. Wells containing untreated control cells are filled with 200 μl DMEM medium containing 0.5% v:v DMSO. The cells are then incubated with the substances for 48 hours at 37° C. in a humidified atmosphere containing 5% carbon dioxide. To determine the viability of the cells, 20 μl of an Resazurin solution (Sigma; 90 mg/l) are added. After 4 hours incubation at 37° C. the fluorescence is measured at an extinction of 544 nm and an emission of 590 nm. For the calculation of the cell viability the emission value from untreated cells is set as 100% viability and the emission rates of treated cells are set in relation to the values of untreated cells. Viabilites are expressed as % values. The corresponding IC50 values of the compounds for cytotoxic activity are determined from the concentration-effect curves by means of non-linear regression.

Row | Structure (SMILES) | IC50
21 | CN1CCN(c2cc(-c3ccc(S(=O)(=O)n4ccc(/C=C/C(=O)NO)c4)cn3)ccn2)CC1 [Compound 103, (E)-N-Hydroxy-3-{1-[2′-(4-methyl-piperazin-1-yl)-[2,4′]bipyridinyl-5-sulfonyl]-1H-pyrrol-3-yl}-acrylamide] | 0.014 to 6.7 µM
22 | Cn1cc(-c2ccc(S(=O)(=O)n3ccc(/C=C/C(=O)Nc4ccccc4N)c3)s2)cn1 [Compound 104, (E)-N-(2-Amino-phenyl)-3-{1-[5-(1-methyl-1H-pyrazol-4-yl)-thiophene-2-sulfonyl]-1H-pyrrol-3-yl}-acrylamide] | 0.014 to 6.7 µM
23 | CN(C)Cc1ccc(-c2ccc(S(=O)(=O)n3ccc(/C=C/C(=O)NO)c3)cn2)cc1 [Compound 105, (E)-3-{1-[6-(4-Dimethylaminomethyl-phenyl)-pyridine-3-sulfonyl]-1H-pyrrol-4-yl}-N-hydroxy-acrylamide] | 0.014 to 6.7 µM
24 | CN1CCN(c2cc(-c3ccc(S(=O)(=O)n4ccc(/C=C/C(=O)Nc5ccccc5N)c4)s3)ccn2)CC1 [Compound 106, (E)-N-(2-Amino-phenyl)-3-(1-{5-[2-(4-methyl-piperazin-1-yl)-pyridin-4-yl]-thiophene-2-sulfonyl}-1H-pyrrol-3-yl)-acrylamide] | 0.014 to 6.7 µM
25 | Nc1ccccc1NC(=O)/C=C/c1ccn(S(=O)(=O)c2ccc(-c3ccc(OCCN4CCCC4)cc3)cc2)c1 [Compound 108, (E)-N-(2-Amino-phenyl)-3-{1-[4′-(2-pyrrolidin-1-yl-ethoxy)-biphenyl 4-sulfonyl]-1H-pyrrol-3-yl}-acrylamide] | 0.014 to 6.7 µM
